Results on 24 molecules are retold here after ChEMBL document CHEMBL1147770, “Design, synthesis and structure-activity relationships of new phosphinate inhibitors of MurD” (Bioorg Med Chem Lett, 2006).

One experiment addresses T1, UDP-N-acetylmuramoylalanine--D-glutamate ligase (Escherichia coli K-12) (UniProt P14900).
T1 sequence (whole entry): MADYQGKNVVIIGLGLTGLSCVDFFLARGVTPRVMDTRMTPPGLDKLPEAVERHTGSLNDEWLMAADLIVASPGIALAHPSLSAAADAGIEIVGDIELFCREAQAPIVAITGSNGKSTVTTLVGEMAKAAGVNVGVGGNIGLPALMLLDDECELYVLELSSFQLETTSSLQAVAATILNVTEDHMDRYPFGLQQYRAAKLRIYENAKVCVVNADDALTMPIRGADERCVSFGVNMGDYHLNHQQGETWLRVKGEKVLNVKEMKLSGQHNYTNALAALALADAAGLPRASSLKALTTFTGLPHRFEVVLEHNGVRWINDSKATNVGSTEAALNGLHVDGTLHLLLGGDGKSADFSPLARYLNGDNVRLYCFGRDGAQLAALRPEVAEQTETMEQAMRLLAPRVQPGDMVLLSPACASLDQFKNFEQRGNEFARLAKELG
The experiment can be described thus: Residual activity of MurD from Escherichia coli at 1 mM.
Molecule `CC(C)C(NC(=O)OCc1ccccc1)P(=O)(O)CC(CCC(=O)O)C(=O)O` (configuration not stated) showed an Activity of 66%.

Take `CC(NC(=O)/C=C/c1cccc(O)c1)P(=O)(O)CC(CCC(=O)O)C(=O)O` (configuration not stated): the Activity was 23%.

Turning to `CC(NS(=O)(=O)c1ccc2ccccc2c1)P(=O)(O)CC(CCC(=O)O)C(=O)O` (configuration not stated), the Activity came to 55%.

With `CC(NC(=O)[C@@H](C)NS(=O)(=O)Cc1ccc([N+](=O)[O-])cc1)P(=O)(O)CC(CCC(=O)O)C(=O)O` (some centres not stated), the Activity was 8%.

In turn, `CC(C)CC(NC(=O)OCc1ccccc1)P(=O)(O)CC(CCC(=O)O)C(=O)O` (configuration not stated) registered an Activity of 65%.

Take `CC(NS(=O)(=O)Cc1ccccc1)P(=O)(O)CC(CCC(=O)O)C(=O)O` (configuration not stated): the Activity came to 40%.

In turn, `CC(NS(=O)(=O)Cc1cccc([N+](=O)[O-])c1)P(=O)(O)CC(CCC(=O)O)C(=O)O` (configuration not stated) displayed an Activity of 22%.

`CC(NS(=O)(=O)Cc1cccc(C(F)(F)F)c1)P(=O)(O)CC(CCC(=O)O)C(=O)O` (configuration not stated) returned an Activity of 49%.

The molecule `CC(NC(=O)OCc1ccccc1)P(=O)(O)CCC(=O)O` (configuration not stated) displayed an Activity of 92%.

Turning to `CC(NS(=O)(=O)Cc1ccc(F)cc1Cl)P(=O)(O)CC(CCC(=O)O)C(=O)O` (configuration not stated), the Activity stood at 37%.

`CC(NS(=O)(=O)Cc1ccc([N+](=O)[O-])cc1)P(=O)(O)CC(CCC(=O)O)C(=O)O` (configuration not stated) showed an Activity of 47%.

With `CC(NC(=O)OCc1ccccc1)P(=O)(O)CC(CCC(=O)O)C(=O)O` (configuration not stated), the Activity is 41%.

`CC(NC(=O)[C@H](C)NS(=O)(=O)Cc1ccc([N+](=O)[O-])cc1)P(=O)(O)CCC(=O)O` (some centres not stated): the Activity was 100%.

`CC(NS(=O)(=O)Cc1ccccc1[N+](=O)[O-])P(=O)(O)CC(CCC(=O)O)C(=O)O` (configuration not stated) showed an Activity of 30%.

In turn, `CCC(C)C(NC(=O)OCc1ccccc1)P(=O)(O)CC(CCC(=O)O)C(=O)O` (configuration not stated) had an Activity of 83%.

Consider `CC(NC(=O)/C=C/c1ccc2c(c1)OCO2)P(=O)(O)CCC(=O)O` (configuration not stated), for which the Activity turned out to be 91%.

The molecule `CC(NS(=O)(=O)c1ccccc1)P(=O)(O)CC(CCC(=O)O)C(=O)O` (configuration not stated) displayed an Activity of 54%.

`CC(NC(=O)Cc1ccc2c(c1)OCO2)P(=O)(O)CC(CCC(=O)O)C(=O)O` (configuration not stated): the Activity stood at 36%.

Molecule `CC(NC(=O)[C@@H](C)NC(=O)Cc1ccc2c(c1)OCO2)P(=O)(O)CC(CCC(=O)O)C(=O)O` (some centres not stated) had an Activity of 44%.

`CC(NC(=O)[C@@H](C)NS(=O)(=O)Cc1cccc([N+](=O)[O-])c1)P(=O)(O)CC(CCC(=O)O)C(=O)O` (some centres not stated) returned an Activity of 19%.

As for `CC(NS(=O)(=O)Cc1ccc(C(F)(F)F)cc1)P(=O)(O)CC(CCC(=O)O)C(=O)O` (configuration not stated), the Activity was 50%.

Take `CC(NS(=O)(=O)c1cccc([N+](=O)[O-])c1)P(=O)(O)CC(CCC(=O)O)C(=O)O` (configuration not stated): the Activity worked out at 52%.

The molecule `CC(NC(=O)/C=C/c1ccccc1)P(=O)(O)CC(CCC(=O)O)C(=O)O` (configuration not stated) had an Activity of 28%.

Another experiment deals with T2, UDP-N-acetylmuramoylalanine--D-glutamate ligase (Streptococcus pneumoniae serotype 4 (strain ATCC BAA-334 / TIGR4), UniProt Q97RU8).
T2 sequence (Q97RU8 whole entry): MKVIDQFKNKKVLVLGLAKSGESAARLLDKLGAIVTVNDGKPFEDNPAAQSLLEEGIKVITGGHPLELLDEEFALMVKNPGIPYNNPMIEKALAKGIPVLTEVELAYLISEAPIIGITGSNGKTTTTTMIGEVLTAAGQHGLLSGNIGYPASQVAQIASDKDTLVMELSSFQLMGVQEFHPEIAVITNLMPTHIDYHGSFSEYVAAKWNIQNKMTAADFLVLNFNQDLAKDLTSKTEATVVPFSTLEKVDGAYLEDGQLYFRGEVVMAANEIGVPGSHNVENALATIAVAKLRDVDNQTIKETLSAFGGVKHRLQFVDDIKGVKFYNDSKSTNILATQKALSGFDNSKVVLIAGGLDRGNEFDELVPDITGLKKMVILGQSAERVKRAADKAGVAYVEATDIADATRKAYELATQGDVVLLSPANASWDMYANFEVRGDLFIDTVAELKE
The experiment can be described thus: Inhibitory activity against MurD from Streptococcus pneumoniae.
As usually defined, the IC50 is the concentration that gives 50% inhibition. A higher IC50 goes with lower potency. Regarding `CC(NC(=O)OCc1ccccc1)P(=O)(O)CC(CCC(=O)O)C(=O)O` (configuration not stated), the midpoint of inhibition, the IC50, lay at 100 µM.

Another experiment deals with T3, UDP-N-acetylmuramoylalanine--D-glutamate ligase (Escherichia coli K-12, UniProt P14900).
T3 sequence (P14900 whole entry): T1 sequence (whole entry)
The experiment can be described thus: Inhibitory activity against MurD from Escherichia coli.
As for `CC(NC(=O)[C@@H](C)NS(=O)(=O)Cc1ccc([N+](=O)[O-])cc1)P(=O)(O)CC(CCC(=O)O)C(=O)O` (some centres not stated), the IC50 stood at 78 µM.

Regarding `CC(NC(=O)/C=C/c1ccc2c(c1)OCO2)P(=O)(O)CC(CCC(=O)O)C(=O)O` (configuration not stated), 95 µM corresponded to half-maximal inhibition (IC50).

`CC(NC(=O)/C=C/c1ccccc1)P(=O)(O)CC(CCC(=O)O)C(=O)O` (configuration not stated): the IC50 was determined as 432 µM.
